Columns and labels:
[1] = tested on: Puccinia recondita; assay: In vivo preventive test on Puccinia recondita (brown rust on wheat); settings: graded 12 days after contamination
Method: Wheat plants (“Scipion” variety), sown in starter cups on a 50/50 peat soil-pozzolana substrate and grown at 22° C., are treated at the 1-leaf stage (10 cm height) by spraying with the active ingredient prepared as described above. Plants, used as controls, are treated with the mixture of acetone/tween/DMSO/water not containing the active material. After 24 hours, the plants are contaminated by spraying the leaves with an aqueous suspension of Puccinia recondita spores (100 000 spores per ml). The spores are collected from an infected plant and are suspended in water to containing 2.5 ml/l of Tween 80 at 10%. […] Grading (% of efficacy) is carried out 12 days after the contamination, in comparison with the control plants.

[2] = tested on: Sphaerotheca fuliginea; assay: In vivo preventive test on Sphaerotheca fuliginea (powdery mildew on cucurbits); settings: graded 12 days after contamination
Method: Gherkin plants (“Vert petit de Paris” variety), sown in starter cups on a 50/50 peat soil-pozzolana substrate and grown at 24° C., are treated at the Z11 cotyledon stage by spraying with the active ingredient prepared as described above. Plants, used as controls, are treated with the mixture of acetone/tween/DMSO/water not containing the active material. After 24 hours, the plants are contaminated by spraying the cotyledons with an aqueous suspension of Sphaerotheca fuliginea spores (100 000 spores per ml). The spores are collected from infected plants. […] Grading (% of efficacy) is carried out 12 days after the contamination, in comparison with the control plants.

[3] = tested on: Septoria tritici; assay: In vivo preventive test on Septoria tritici (leaf spot on wheat); settings: 500 ppm, wheat plants sprayed 24 h before contamination, graded 24 days after contamination
Method: Wheat plants (“Scipion” variety), sown in starter cups on a 50/50 peat soil-pozzolana substrate and grown at 22° C., are treated at the 1-leaf stage (10 cm height) by spraying with the active ingredient prepared as described above. Plants, used as controls, are treated with the mixture of acetone/tween/DMSO/water not containing the active material. After 24 hours, the plants are contaminated by spraying the leaves with an aqueous suspension of cryopreserved Septoria tritici spores (500 000 spores per ml). The contaminated wheat plants are incubated for 72 hours at 18° C. and at 100% relative humidity, and then for 21 days at 90% relative humidity. Grading (% of efficacy) is carried out 24 days after the contamination, in comparison with the control plants.

[4] = tested on: Alternaria brassicae; assay: In vivo preventive test on Alternaria brassicae (leaf spot on radish); settings: 500 ppm, radish plants sprayed 24 h before contamination, graded 6 days after contamination
Method: Radish plants (“Pernod Clair” variety), sown in starter cups on a 50/50 peat soil-pozzolana substrate and grown at 17° C., are treated at the cotyledon stage by spraying with the active ingredient prepared as described above. Plants, used as controls, are treated with the mixture of acetone/tween/DMSO/water not containing the active material. After 24 hours, the plants are contaminated by spraying the cotyledons with an aqueous suspension of Alternaria brassicae spores (50 000 spores per ml). The spores are collected from a 15-day-old culture. The contaminated radish plants are incubated at 20° C. and at 100% relative humidity. Grading (% of efficacy) is carried out 6 days after the contamination, in comparison with the control plants.

[5] = tested on: Pyrenophora teres; assay: In vivo preventive test on Pyrenophora teres (net blotch on barley); settings: graded 14 days after contamination
Method: Barley plants (“Plaisant” variety), sown in starter cups on a 50/50 peat soil-pozzolana substrate and grown at 22° C., are treated at the 1-leaf stage (10 cm height) by spraying with the active ingredient prepared as described above. Plants, used as controls, are treated with the mixture of acetone/tween/DMSO/water not containing the active material. After 24 hours, the plants are contaminated by spraying the leaves with an aqueous suspension of Pyrenophora teres spores (12 000 spores per ml). The spores are collected from a 12-day-old culture. […] Grading (% of efficacy) is carried out 14 days after the contamination, in comparison with the control plants.

[6] = tested on: Uromyces appendiculatus; assay: In vivo preventive test on Uromyces appendiculatus (bean rust); settings: bean plants
Method: Bean plants (“Saxa” variety), sown in starter cups on a 50/50 peat soil-pozzolana substrate and grown at 24° C., are treated at the 2-leaf stage (9 cm height) by spraying with the active ingredient prepared as described above. Plants, used as controls, are treated with the mixture of acetone/tween/DMSO/water not containing the active material. After 24 hours, the plants are contaminated by spraying the leaves with an aqueous suspension of Uromyces appendiculatus spores (150 000 spores per ml). The spores are collected from infected plants and are suspended in water containing 2.5 ml/1 of Tween 80 at 10%. […] Grading (% of efficacy) is carried out 11 days after the contamination, in comparison with the control plants.

[7] = logP by HPLC on reversed phase columns (EEC directive 79/831 Annex V.A8); assay type: physicochemical; settings: for logP: method [a]: LC-MS at pH 2.7, 0.1% formic acid in water / acetonitrile, compounds of formula (I), Table 1; for chromatographic logP: pH 2.7
[8] = 500 ppm, wheat plants sprayed 24 h before contamination
[9] = 500 ppm, gherkin plants sprayed 24 h before contamination
[10] = 500 ppm, barley plants sprayed 24 h before contamination
[11] = preventive, dose of 500 ppm, grading 11 days after contamination
[12] = 100 ppm, graded 11 days after contamination

SMILES	logP [7]	chromatographic logP [7]	Eff. % [1, 8]	Eff. % [2, 9]	Eff. % [3]	Eff. % [4]	Eff. % [5, 10]	Eff. % [6, 11]	Eff. % ([1]; 100 ppm, wheat plants)	Eff. % ([5]; 100 ppm, barley plants)	Eff. % ([2]; 100 ppm, gherkin plants)	Eff. % [6, 12]
CON=C1c2cccc(NC(=O)c3cn(C)nc3C(F)(F)F)c2CC1(C)C (mixture of isomers) [Example 30]			86%	98%	100%							
CON=C1c2cccc(NC(=O)c3cn(C)nc3C(F)F)c2CC1(C)C (mixture of isomers) [Example 32]			93%	98%	100%	75%						
CCC1Cc2c(NC(=O)c3c(C)nn(C)c3Cl)cccc2C1(C)C (racemic) [Example 68]	4.32[a]		100%			75%		100%				
CC1Cc2c(NC(=O)c3cn(C)nc3I)cccc2C1(C)C (racemic) [Example 75]	3.64[a]		98%	78%	79%			100%				
CC(C)CC1Cc2cccc(NC(=O)c3cn(C)nc3C(F)F)c2C1 (centres unmarked) [Example 4]			93%	70%	85%	93%		100%				
CC1c2cccc(NC(=O)c3cn(C)nc3C(F)(F)F)c2CC1(C)C (centres unmarked) [Example 15]	3.74[a]		96%	100%		86%		100%				
Cn1cc(C(=O)Nc2cccc3c2CC2CCCCC32)c(C(F)F)n1 (centres unmarked) [Example 24]	3.81[a]		89%				86%	100%				
CC(C)C1Cc2c(NC(=O)c3cn(C)nc3C(F)F)cccc2C1(C)C (centres unmarked) [Example 39]	4.27[a]		98%	100%	71%	98%		100%				
CC(C)C1Cc2c(NC(=O)c3cn(C)nc3C(F)(F)F)cccc2C1(C)C (centres unmarked) [Example 40]	4.46[a]		98%	100%	93%	89%		100%				
Cc1nn(C)c(F)c1C(=O)Nc1cccc2c1CC(C(C)C)C2(C)C (centres unmarked) [Example 41]	4.34[a]		100%	100%	71%	78%		100%				
Cn1cc(C(=O)Nc2cccc3c2CC(C)(C)C3)c(C(F)F)n1 [Example 45]	3.21[a]		98%	100%	97%			100%				
CCC1Cc2c(NC(=O)c3c(C(F)(F)F)nn(C)c3F)cccc2C1(C)C (centres unmarked) [Example 50]	4.51[a]		98%	98%		88%		100%				
CC(C)C1Cc2c(NC(=S)c3cn(C)nc3C(F)F)cccc2C1(C)C (centres unmarked) [Example 77, 3-(difluoromethyl)-N-(2-isopropyl-1,1-dimethyl-2,3-dihydro-1H-inden-4-yl)-1-methyl-1H-pyrazole-4-carbothioamide]		4.54							100%	100%	100%	100%

Now from value to molecule, other results behind:

logP [7]	chromatographic logP [7]	SMILES	Eff. % [1, 8]	Eff. % [2, 9]	Eff. % [3]	Eff. % [4]	Eff. % [5, 10]	Eff. % [6, 11]	Eff. % ([1]; 100 ppm, wheat plants)	Eff. % ([5]; 100 ppm, barley plants)	Eff. % ([2]; 100 ppm, gherkin plants)	Eff. % [6, 12]
4.82[a]		CC(C)C1Cc2c(NC(=O)c3c(C(F)(F)F)nn(C)c3F)cccc2C1(C)C (racemic) [Example 66]	98%	98%		79%	83%	100%				
4.76[a]		Cc1nn(C)c(Cl)c1C(=O)Nc1cccc2c1CC(C(C)C)C2(C)C (racemic) [Example 69]	88%	72%			75%	100%				
4.46[a]		CCC1(CC)Cc2c(NC(=O)c3cn(C)nc3C(F)(F)F)cccc2C1C (racemic) [Example 74]	98%	98%	94%			100%				
4.27[a]		CCC1(CC)Cc2c(NC(=O)c3cn(C)nc3C(F)F)cccc2C1C (racemic) [Example 79]	98%	100%	98%	95%		100%				
4.78[a]		CC(C)C1Cc2c(NC(=S)c3cn(C)nc3C(F)(F)F)cccc2C1(C)C (racemic) [Example 86]							100%	100%	100%	100%
3.96[a]		Cc1nn(C)c(C(F)F)c1C(=O)Nc1cccc2c1CC(C)C2(C)C (racemic) [Example 87]	100%		92%			100%				
	3.96	CC1c2cccc(NC(=O)c3cn(C)nc3C(F)F)c2CC12CCCC2 (centres unmarked) [Example 10, 3-(difluoromethyl)-1-methyl-N-(1′-methyl-1′,3′-dihydrospiro[cyclopentane-1,2′-inden]-4′-yl)-1H-pyrazole-4-carboxamide]	97%	100%	100%	93%	83%	100%				
3.37[a]		CCc1c(C(=O)Nc2cccc3c2CC(C)C3(C)C)cnn1C (centres unmarked) [Example 20]			97%	97%	100%					
3.74[a]		Cn1cc(C(=O)Nc2cccc3c2CC2(CCCC2)C3)c(C(F)F)n1 [Example 25]	94%	95%		71%	71%	100%				
2.94[a]		[2H]C1(C)Cc2cccc(NC(=O)c3cn(C)nc3C(F)F)c2C1 (centres unmarked) [Example 26]	100%	89%	100%			100%				
3.76[a]		CC1c2c(NC(=O)c3cn(C)nc3C(F)(F)F)cccc2C(C)(C)C1C (centres unmarked) [Example 31]	94%	72%	79%	80%		100%				
3.96[a]		CCC1Cc2c(NC(=O)c3cn(C)nc3C(F)F)cccc2C1(C)C (centres unmarked) [Example 36]	98%	100%	86%		75%	100%				
3.55[a]		CCC1Cc2c(NC(=O)c3c(C)nn(C)c3C)cccc2C1(C)C (centres unmarked) [Example 38]	100%			80%		100%				
3.72[a]		CC1c2cccc(NC(=O)c3cn(C)nc3C(F)(F)F)c2CC1(C)C (centres unmarked) [Example 52]	100%	98%	94%			100%				
